Measured values: the NIST ThermoML archive (doi:10.1021/je0340809)
Numbers after ± are expanded uncertainties.

Test: xn = mol fraction of the nth substance listed
Conditions: 101.3 kPa, Liquid

C=CN1CCCC1=O [N-vinylpyrrolidone] + O
Conditions	mass density [kg/m3]	speed of sound [m/s]	viscosity [mPa·s]
298.15 K, x2 = 0.0557	1042.3 ± 0.77	1533.7 ± 6.3	4.243 ± 0.097
298.15 K, x2 = 0.1591	1043.33 ± 0.77	1548.1 ± 6.4	–
298.15 K, x2 = 0.2543	1044.19 ± 0.78	1563.3 ± 6.4	3.875 ± 0.089
298.15 K, x2 = 0.3503	1044.83 ± 0.78	1580.9 ± 6.5	3.75 ± 0.086
298.15 K, x2 = 0.4525	1045.46 ± 0.79	1598.7 ± 6.5	3.717 ± 0.085
298.15 K, x2 = 0.5028	1045.82 ± 0.79	1609.9 ± 6.6	3.742 ± 0.085
298.15 K, x2 = 0.5539	1046.19 ± 0.79	1618.5 ± 6.6	3.792 ± 0.086
298.15 K, x2 = 0.6546	1046.56 ± 0.79	1635.8 ± 6.6	3.91 ± 0.088
298.15 K, x2 = 0.7505	1045.06 ± 0.78	1649.2 ± 6.7	3.904 ± 0.087
298.15 K, x2 = 0.8519	1037.72 ± 0.73	1648.2 ± 6.7	3.466 ± 0.078
298.15 K, x2 = 0.8751	1034.5 ± 0.71	1646.7 ± 6.7	3.255 ± 0.074
298.15 K, x2 = 0.8852	1032.84 ± 0.7	1644.4 ± 6.7	3.145 ± 0.071
298.15 K, x2 = 0.9001	1030.08 ± 0.69	1640 ± 6.6	2.962 ± 0.067
298.15 K, x2 = 0.9251	1024.45 ± 0.65	1623.7 ± 6.6	2.591 ± 0.059
298.15 K, x2 = 0.9357	1021.63 ± 0.63	1613.8 ± 6.6	2.408 ± 0.056
298.15 K, x2 = 0.9554	1015.6 ± 0.6	1589.5 ± 6.5	2.021 ± 0.047
298.15 K, x2 = 0.9649	1012.26 ± 0.57	1574.7 ± 6.4	–
298.15 K, x2 = 0.9749	1008.43 ± 0.55	1556.5 ± 6.4	1.573 ± 0.037
298.15 K, x2 = 0.9903	1001.77 ± 0.51	1523.1 ± 6.3	1.169 ± 0.029
308.15 K, x2 = 0.0557	1033.43 ± 0.71	1502.5 ± 6.2	2.907 ± 0.067
308.15 K, x2 = 0.1591	1034.36 ± 0.72	1514.3 ± 6.3	2.809 ± 0.065
308.15 K, x2 = 0.2543	1035.14 ± 0.72	1526.7 ± 6.3	2.718 ± 0.063
308.15 K, x2 = 0.3503	1035.73 ± 0.73	1541.2 ± 6.3	2.667 ± 0.062
308.15 K, x2 = 0.4525	1036.33 ± 0.73	1556.2 ± 6.4	2.694 ± 0.062
308.15 K, x2 = 0.5028	1036.61 ± 0.73	1565.6 ± 6.4	2.742 ± 0.063
308.15 K, x2 = 0.5539	1037.01 ± 0.73	1573.3 ± 6.4	2.807 ± 0.065
308.15 K, x2 = 0.6546	1037.41 ± 0.73	1589.3 ± 6.5	2.954 ± 0.068
308.15 K, x2 = 0.7505	1036.16 ± 0.73	1603.4 ± 6.5	3.001 ± 0.069
308.15 K, x2 = 0.8519	1029.8 ± 0.69	1609.5 ± 6.5	2.703 ± 0.062
308.15 K, x2 = 0.8751	1026.99 ± 0.67	1610.5 ± 6.5	2.545 ± 0.059
308.15 K, x2 = 0.8852	1025.54 ± 0.66	1609.8 ± 6.5	2.463 ± 0.057
308.15 K, x2 = 0.9001	1023.12 ± 0.64	1608.2 ± 6.5	2.324 ± 0.054
308.15 K, x2 = 0.9251	1018.18 ± 0.61	1599.1 ± 6.5	2.04 ± 0.048
308.15 K, x2 = 0.9357	1015.71 ± 0.6	1593.2 ± 6.5	1.9 ± 0.045
308.15 K, x2 = 0.9554	1010.4 ± 0.56	1578.2 ± 6.4	1.6 ± 0.038
308.15 K, x2 = 0.9649	1007.47 ± 0.55	1568.8 ± 6.4	1.437 ± 0.034
308.15 K, x2 = 0.9749	1004.09 ± 0.52	1557.1 ± 6.4	1.252 ± 0.031
308.15 K, x2 = 0.9903	998.206 ± 0.51	1535.4 ± 6.3	0.932 ± 0.024
318.15 K, x2 = 0.0557	1024.6 ± 0.66	1470.5 ± 6.1	2.552 ± 0.058
318.15 K, x2 = 0.1591	1025.41 ± 0.66	1480.4 ± 6.1	2.454 ± 0.056
318.15 K, x2 = 0.2543	1026.11 ± 0.67	1490.9 ± 6.2	2.362 ± 0.054
318.15 K, x2 = 0.3503	1026.63 ± 0.67	1503.3 ± 6.2	2.305 ± 0.053
318.15 K, x2 = 0.4525	1027.16 ± 0.67	1516.6 ± 6.3	2.31 ± 0.053
318.15 K, x2 = 0.5028	1027.46 ± 0.67	1524.9 ± 6.3	2.34 ± 0.054
318.15 K, x2 = 0.5539	1027.78 ± 0.68	1532.1 ± 6.3	2.385 ± 0.055
318.15 K, x2 = 0.6546	1028.14 ± 0.68	1547.7 ± 6.4	2.488 ± 0.057
318.15 K, x2 = 0.7505	1027.08 ± 0.67	1563.3 ± 6.4	2.509 ± 0.057
318.15 K, x2 = 0.8519	1021.56 ± 0.64	1576 ± 6.4	2.249 ± 0.052
318.15 K, x2 = 0.8751	1019.1 ± 0.62	1579.4 ± 6.5	2.115 ± 0.049
318.15 K, x2 = 0.8852	1017.84 ± 0.61	1580.1 ± 6.5	2.046 ± 0.048
318.15 K, x2 = 0.9001	1015.73 ± 0.6	1580.9 ± 6.5	1.929 ± 0.045
318.15 K, x2 = 0.9251	1011.41 ± 0.57	1577.9 ± 6.4	1.692 ± 0.04
318.15 K, x2 = 0.9357	1009.25 ± 0.56	1575.3 ± 6.4	1.576 ± 0.037
318.15 K, x2 = 0.9554	1004.59 ± 0.53	1567.9 ± 6.4	1.326 ± 0.032
318.15 K, x2 = 0.9649	1002.02 ± 0.51	1562.9 ± 6.4	1.191 ± 0.029
318.15 K, x2 = 0.9749	999.05 ± 0.51	1556.6 ± 6.4	1.037 ± 0.026
318.15 K, x2 = 0.9903	993.883 ± 0.54	1544.4 ± 6.3	0.776 ± 0.02
328.15 K, x2 = 0.0557	1015.77 ± 0.6	1433 ± 6	2.221 ± 0.051
328.15 K, x2 = 0.1591	1016.49 ± 0.61	1441.7 ± 6	2.128 ± 0.049
328.15 K, x2 = 0.2543	1017.1 ± 0.61	1451.2 ± 6.1	2.042 ± 0.047
328.15 K, x2 = 0.3503	1017.56 ± 0.61	1462.3 ± 6.1	1.983 ± 0.046
328.15 K, x2 = 0.4525	1018.03 ± 0.62	1474.7 ± 6.1	1.975 ± 0.046
328.15 K, x2 = 0.5028	1018.3 ± 0.62	1482.4 ± 6.2	1.993 ± 0.046
328.15 K, x2 = 0.5539	1018.58 ± 0.62	1489.6 ± 6.2	2.025 ± 0.047
328.15 K, x2 = 0.6546	1018.91 ± 0.62	1505.7 ± 6.2	2.096 ± 0.049
328.15 K, x2 = 0.7505	1018 ± 0.61	1523.4 ± 6.3	2.103 ± 0.049
328.15 K, x2 = 0.8519	1013.18 ± 0.58	1542.9 ± 6.3	1.876 ± 0.044
328.15 K, x2 = 0.8751	1011.04 ± 0.57	1548.6 ± 6.4	1.763 ± 0.041
328.15 K, x2 = 0.8852	1009.94 ± 0.56	1550.7 ± 6.4	1.705 ± 0.04
328.15 K, x2 = 0.9001	1008.09 ± 0.55	1553.7 ± 6.4	1.609 ± 0.038
328.15 K, x2 = 0.9251	1004.31 ± 0.53	1556.2 ± 6.4	1.411 ± 0.034
328.15 K, x2 = 0.9357	1002.41 ± 0.52	1556.5 ± 6.4	1.314 ± 0.032
328.15 K, x2 = 0.9554	998.333 ± 0.51	1556.6 ± 6.4	1.108 ± 0.027
328.15 K, x2 = 0.9649	996.075 ± 0.52	1554.4 ± 6.4	0.995 ± 0.025
328.15 K, x2 = 0.9749	993.467 ± 0.54	1552.6 ± 6.4	0.868 ± 0.022
328.15 K, x2 = 0.9903	988.924 ± 0.57	1548.5 ± 6.3	0.652 ± 0.017
338.15 K, x2 = 0.0557	1006.93 ± 0.55	1406 ± 5.9	1.807 ± 0.043
338.15 K, x2 = 0.1591	1007.56 ± 0.55	1413.8 ± 5.9	1.736 ± 0.041
338.15 K, x2 = 0.2543	1008.1 ± 0.56	1422.3 ± 6	1.668 ± 0.04
338.15 K, x2 = 0.3503	1008.51 ± 0.56	1432.4 ± 6	1.624 ± 0.039
338.15 K, x2 = 0.4525	1008.92 ± 0.56	1444.1 ± 6	1.621 ± 0.039
338.15 K, x2 = 0.5028	1009.15 ± 0.56	1451.3 ± 6.1	1.639 ± 0.039
338.15 K, x2 = 0.5539	1009.4 ± 0.56	1458.3 ± 6.1	1.667 ± 0.04
338.15 K, x2 = 0.6546	1009.7 ± 0.56	1474.6 ± 6.1	1.73 ± 0.041
338.15 K, x2 = 0.7505	1008.9 ± 0.56	1493.7 ± 6.2	1.739 ± 0.041
338.15 K, x2 = 0.8519	1004.69 ± 0.53	1517.9 ± 6.3	1.557 ± 0.037
338.15 K, x2 = 0.8751	1002.82 ± 0.52	1525.2 ± 6.3	1.466 ± 0.035
338.15 K, x2 = 0.8852	1001.85 ± 0.51	1528.2 ± 6.3	1.42 ± 0.034
338.15 K, x2 = 0.9001	1000.23 ± 0.5	1532.8 ± 6.3	1.34 ± 0.032
338.15 K, x2 = 0.9251	996.917 ± 0.52	1539.1 ± 6.3	1.18 ± 0.029
338.15 K, x2 = 0.9357	995.252 ± 0.53	1541.5 ± 6.3	1.1 ± 0.027
338.15 K, x2 = 0.9554	991.671 ± 0.55	1545.5 ± 6.3	0.931 ± 0.023
338.15 K, x2 = 0.9649	989.687 ± 0.56	1547 ± 6.3	0.84 ± 0.021
338.15 K, x2 = 0.9749	987.393 ± 0.58	1548.4 ± 6.3	0.736 ± 0.019
338.15 K, x2 = 0.9903	983.396 ± 0.6	1550.2 ± 6.4	0.56 ± 0.015
